Structures can show the parent of a compound that is named as a salt.
Legend:
[1] = tested on: adult individuals with moderate hypercholesterolaemia; assay: 6-arm, double-blind, placebo-controlled pilot clinical study, 12 weeks; format: in vivo, humans
Method: All the enrolled subjects were subjected, 14 days prior to enrolment (T-14), to a pre-enrolment visit with blood tests to assess meeting the inclusion criteria. The individuals who at TO met the inclusion criteria underwent a randomization visit at which the respective treatment was assigned and blood tests were performed in relation to the reference parameters. The study lasted 12 weeks. At the end of treatment (T12), the subjects were subjected to an end-of-study visit and blood tests. The parameters investigated in the study are: Body mass index, systolic and diastolic blood pressure, blood glucose, total cholesterol, LDL, HDL, triglycerides, GOT, GPT, gGT, creatinine phosphokinase (CPK). […] The treatment called “placebo” consists of a tablet equal in shape, weight, colour size and flavour to the active tablet but containing “inert” material for the desired effect and consists of: microcrystalline cellulose, magnesium stearate, silicon dioxide, calcium phosphate, chlorophylline dye, yellow iron oxide dye, yellow coating agents. The treatments related to groups C, D, E and F consist of one tablet equal in appearance to the tablets of groups A and B but consisting of the single active ingredient, as described above in addition to excipients. The treatment tablets were packaged in anonymous white bottles, showing only the batch number consisting of an alphanumeric code and the expiration date. Neither the investigator nor the study subjects knew the contents of the bottles. The bottles of each treatment were placed in cardboard boxes containing a letter in a sealed envelope with reference to the batch number and content, to be opened only in case of need, as in cases of serious adverse events. After randomization, each study participant was given the vial with 30 tablets for the specific treatment of the group to which they belonged. All the subjects were instructed to take one tablet in the evening before bed for 12 weeks.

[2] = tested on: streptozocin-induced diabetic rats; conditions: 6 mg/kg for 5 weeks; cited from earlier work
[3] = tested on: 86 subjects of which 60 with type II diabetes mellitus; conditions: 100 mg per day, after 3 months of supplementation; cited from earlier work
[4] = tested on: hyperglycaemic subjects; conditions: 300 mg daily dose; cited from earlier work
[5] = after 12 weeks, printed as reduction of x% or as −x%

With `Cc1ncc(C[n+]2csc(CCO)c2C)c(N)n1` [THIAMINE, thiamine hydrochloride] as the compound, how does the “reductions in the parameters of interest” value ([1]; after 12 weeks) read?
Its value is “did not show statistically significant reductions”.

What about the “increase of HDL cholesterol (HDL-C)” value ([1]; after 12 weeks of treatment) of the same compound?
The value was “no changes”.

What about the “reduction of LDL cholesterol (LDL-C)” value ([1]; after 12 weeks of treatment) of the same compound?
Its value is “did not achieve a percentage reduction”.

What about the “reduction of fasting plasma glucose (FPG)” value [1, 5] of the same compound?
The value was “not detected”.

What about the “reduction of triglycerides (TG)” value [1, 5] of the same compound?
Its value is −1%.

What about the HDL-c [2] of the same compound?
Its HDL-c is “increases”.

And the insulin [2]?
The insulin was “increases”.

And the malonyldialdehyde [2]?
Its malonyldialdehyde is “reduces”.

What about the serum glucose [2] of the same compound?
The serum glucose was “reduces”.

What about the total cholesterol [2] of the same compound?
The total cholesterol was “reduces”.

And the triglycerides [2]?
Its triglycerides is “reduces”.

And the total cholesterol [3]?
Its total cholesterol is “significantly reduces”.

And the diastolic pressure [4]?
The diastolic pressure was “reduces”.

And the systolic pressure [4]?
Its systolic pressure is “reduces”.

— patent US20250127835A1, “COMPOSITION BASED ON PLANT EXTRACTS AND USE THEREOF FOR THE PREVENTION AND/OR TREATMENT OF CARBOHYDRATE AND LIPID DYSMETABOLISM” (ESSERRE PHARMA SRL, priority 2021, published 2025)
